Measurements as given in patent publication US20190343782A1, “METHODS OF TREATING LIVER TOXICITY AND DISORDERS” (Yeda Research and Development Co. Ltd., priority 2016, published 2019).

Experiment: APAP-induced hepatotoxicity: liver enzyme release and liver histology
Format: in vivo
Conditions: control mice; APAP 500 mg/kg intraperitoneally at ZT0 versus ZT12; analyzed 10 hours after injection
Experimental: Mice: C57B1/6 mice were purchased from Harlan and allowed to acclimatize to the animal facility environment for 2 weeks before used for experimentation. […] In all experiments, age- and gender-matched mice were used. Mice were 8-9 weeks of age at the beginning of experiments. All mice were kept at a strict 24-hour light-dark cycle, with lights being turn on from 6 am to 6 pm. […] Acetaminophen was administered intraperitoneally at a concentration of 500 mg/kg at either ZT0 or ZT12, and mice were analyzed 10 hours after injection. All antibiotics as well as acetaminophen were obtained from Sigma Aldrich.
Histology: Sections from the left lobe of the liver were fixed in paraformaldehyde and embedded in paraffin for staining with H&E. Subsequently, sections were examined by a blinded veterinary pathologist and scored for necrosis and hemorrhage on a scale from 0 (healthy) to 3 (most severe).
Statistical analysis: Data are expressed as mean ±SEM. […] Unless stated otherwise, elements with p<0.05 and q<0.1 were considered significant. For metabolites, q<0.2 was considered significant. For two-group comparisons, Mann-Whitney U-test was used and comparisons with p<0.05 were considered significant.

Compound: CC(=O)Nc1ccc(O)cc1 [APAP, acetaminophen]
- APAP-induced hepatotoxicity (liver enzyme release, liver histology): dramatically exacerbated liver toxicity when APAP was injected at ZT12 as compared to ZTO
